This note sets out measurements from DBAASP.

In brackets after ≈: the same amount, converted by molar mass. A value given as a limit tells only on which side of the number the result lay.

Among the test systems are Pseudomonas fluorescens; Escherichia coli O9; Escherichia coli L361; Bacillus cereus ACM 446; Citrobacter freundii; Morganella morganii; Escherichia coli NDM-1; Klebsiella oxytoca; Enterococcus faecalis; Enterobacter cloacae; Escherichia coli C25.
What all share (assay): ≥ marks a high value that may be exact or a test limit, other limits are often not marked, values filed in µg/mL are converted to µM
For assay [1], the system named is Bacillus cereus ATCC 14579.
In assay [2] the test system is Enterococcus faecium 5F-10.
Assay [3] has as its system Salmonella enterica ATCC H9812.
Assay [4] concerns Bacillus subtilis ATCC 6051.
Assay [5] has as its system Bacillus amyloliquefaciens ATCC 23842.
For assay [6], the system named is Proteus mirabilis ATCC 35659.
In assay [7] the test system is Pseudomonas aeruginosa PAO1.
For assay [8], the system named is Staphylococcus aureus ATCC 29213.
For assay [9], the system named is Escherichia coli ATCC 25922.
In assay [10] the test system is Bacillus licheniformis ATCC 14580.
Assay [11] deals with Enterococcus faecalis 1F-1.
The test system of assay [12] is Staphylococcus aureus NCTC 6571.
For assay [13], the system named is Salmonella enterica subsp. enterica serovar Salford IMVS 1710.
For assay [14], the system named is Listeria monocytogenes NCTC 7973.
The subject of assay [15] is Bacillus subtilis ATCC 6633.
Assay [16] deals with Escherichia coli DH5alpha.
The test system of assay [17] is Staphylococcus aureus ATCC 9144.
Assay [18] deals with Escherichia coli ATCC 10536.
Assay [19] has as its system Staphylococcus aureus ATCC 1717.
For assay [20], the system named is Klebsiella pneumoniae NDM-1.
The test system of assay [21] is Bacillus subtilis ATCC 23857.
Assay [22] has as its system Klebsiella pneumoniae ATCC 13883.
Assay [23] deals with Staphylococcus aureus JE2.
Assay [24] deals with Staphylococcus aureus ATCC 6538.
Assay [25] relates to Pseudomonas aeruginosa ATCC 27853.
Assay [26] concerns Micrococcus luteus ATCC 49732.
The subject of assay [27] is Klebsiella pneumoniae NCTC 5055.
The test system of assay [28] is Escherichia coli ATCC 15597.
For assay [29], the system named is Salmonella typhimurium DA6192.
The subject of assay [30] is Staphylococcus aureus ATCC 25923.

As to `CC(C)C[C@H](NC(=O)[C@H](CC(C)C)NC(=O)[C@H](CCC(=O)O)NC(=O)[C@@H](N)CC(=O)O)C(=O)N[C@@H](CO)C(=O)N[C@@H](CCCN=C(N)N)C(=O)N[C@H](C(=O)O)C(C)C` [DELLSRV], the MIC in [1] is not below 154 µM; in assay [2], not below 154 µM; in assay [3], not below 77 µM; in assay [4], not below 154 µM; in [5], not below 154 µM; in [6], not below 154 µM. The MIC was more than 154 µM in [7]; more than 154 µM in [8]; 38.5 µM (≈ 32 µg/mL) in assay [9]; not below 154 µM in [10]; not below 154 µM in [11].
On to `CC[C@H](C)[C@H](NC(=O)[C@H](CO)NC(=O)[C@@H]1CCCN1C(=O)[C@H](C)NC(=O)CNC(=O)[C@H](CC(C)C)NC(=O)[C@H](CCCCN)NC(=O)[C@H](CCCCN)NC(=O)[C@H](CCSC)NC(=O)[C@H](CCCN=C(N)N)NC(=O)[C@H](Cc1c[nH]c2ccccc12)NC(=O)[C@H](CCC(N)=O)NC(=O)[C@H](Cc1c[nH]c2ccccc12)NC(=O)[C@H](CCCN=C(N)N)NC(=O)[C@H](CCCN=C(N)N)NC(=O)[C@H](CS)NC(=O)[C@H](CCCCN)NC(=O)[C@@H](N)Cc1ccccc1)C(=O)N[C@H](C(=O)N[C@@H](CS)C(=O)N[C@H](C(=O)N[C@@H](CCCN=C(N)N)C(=O)N[C@@H](CCCN=C(N)N)C(=O)N[C@@H](C)C(=O)N[C@@H](Cc1ccccc1)C(=O)N[C@@H](C)C(=O)O)C(C)C)[C@@H](C)O` [FKCRRWQWRMKKLGAPSITCVRRAFA], for which the MIC worked out at 6 µM (≈ 19.2 µg/mL) against Pseudomonas fluorescens; 8 µM (≈ 25.6 µg/mL) against Escherichia coli O9; 4 µM (≈ 12.8 µg/mL) in the assay on Escherichia coli L361; 6 µM (≈ 19.2 µg/mL) in assay [12]; 8 µM (≈ 25.6 µg/mL) against Bacillus cereus ACM 446; 4 µM (≈ 12.8 µg/mL) in assay [13]. The compound also came in with an MIC in [14] of 4 µM (≈ 12.8 µg/mL).
Regarding `CC[C@H](C)[C@H](NC(=O)CN)C(=O)NCC(=O)N[C@@H](C)C(=O)N[C@H](C(=O)N[C@@H](CC(C)C)C(=O)N[C@@H](CCCCN)C(=O)N[C@H](C(=O)N[C@@H](CC(C)C)C(=O)N[C@H](C(=O)N[C@H](C(=O)NCC(=O)N[C@@H](CC(C)C)C(=O)N1CCC[C@H]1C(=O)N[C@@H](C)C(=O)N[C@@H](C)C(=O)N[C@H](C(=O)N[C@@H](CO)C(=O)N[C@@H](Cc1c[nH]c2ccccc12)C(=O)N[C@H](C(=O)N[C@@H](CCCCN)C(=O)N[C@@H](CCCN=C(N)N)C(=O)N[C@@H](CCCCN)C(=O)N[C@@H](CCCN=C(N)N)C(=O)N[C@@H](CCC(N)=O)C(=O)N[C@@H](CCC(N)=O)C(N)=O)[C@@H](C)CC)[C@@H](C)CC)[C@@H](C)O)[C@@H](C)O)C(C)C)C(C)C` [GIGAVLKVLTTGLPAAISWIKRKRQQ], the MIC in [15] stood at 3.9 µM (≈ 10.9 µg/mL); in [16], 4.2 µM (≈ 11.8 µg/mL); in [17] it was 4.2 µM (≈ 11.8 µg/mL); in [18], 4.1 µM (≈ 11.5 µg/mL).
For `CC[C@H](C)[C@H](NC(=O)CN)C(=O)N[C@@H](CCCCN)C(=O)N[C@@H](C)C(=O)NCC(=O)N[C@H](C(=O)N[C@H](C(=O)N[C@H](C(=O)N[C@@H](CCCCN)C(=O)N[C@H](C(=O)N[C@@H](CCCCN)C(=O)N[C@@H](CCCCN)C(N)=O)[C@@H](C)CC)[C@@H](C)CC)[C@@H](C)CC)[C@@H](C)CC` [GIKAGIIIKIKK], the minimum inhibitory concentration (MIC) is 16 µM (≈ 20.5 µg/mL) in the assay on Citrobacter freundii; not below 128 µM in the assay with Morganella morganii; 16 µM (≈ 20.5 µg/mL) in the assay on Escherichia coli NDM-1; not below 128 µM in assay [19]; 22.6 µM (≈ 29 µg/mL) in assay [20]; not below 32 µM against Klebsiella oxytoca. For the same compound, the MIC was not below 64 µM with Enterococcus faecalis, 22.6 µM (≈ 29 µg/mL) in the assay with Enterobacter cloacae, 16 µM (≈ 20.5 µg/mL) in [9] and 16 µM (≈ 20.5 µg/mL) in [21].
As to `CC(C)C[C@H](NC(=O)[C@H](CC(C)C)NC(=O)[C@H](CCCCN)NC(=O)[C@H](CC(C)C)NC(=O)CNC(=O)[C@H](CC(C)C)NC(=O)[C@H](CCCCN)NC(=O)[C@H](CC(C)C)NC(=O)[C@H](CC(C)C)NC(=O)[C@H](CC(C)C)NC(=O)[C@H](CCCCN)NC(=O)[C@H](CC(C)C)NC(=O)CN)C(N)=O` [GLKLLLKLGLKLL], the MIC was 25 µM (≈ 35.5 µg/mL) in assay [22], more than 25 µM in assay [7], 1.56 µM (≈ 2.22 µg/mL) in assay [23] and more than 25 µM in assay [9].
`CC[C@H](C)[C@H](N)C(=O)N[C@H](C(=O)N[C@@H](CCCCN)C(=O)N[C@@H](CCC(N)=O)C(=O)N[C@H](C(=O)N[C@H](C(=O)N[C@@H](CCCCN)C(=O)N[C@@H](CCC(N)=O)C(=O)N[C@@H](CC(C)C)C(=O)N[C@@H](CC(N)=O)C(=O)N[C@@H](CCCN=C(N)N)C(=O)N[C@@H](CCC(N)=O)C(=O)N[C@H](C(=O)N[C@@H](CCCCN)C(=O)N[C@H](C(=O)N[C@@H](CCC(N)=O)C(=O)N[C@@H](CO)C(=O)N[C@@H](CCCCN)C(=O)O)[C@@H](C)CC)[C@@H](C)O)[C@@H](C)O)[C@@H](C)CC)[C@@H](C)O` [ITKQITKQLNRQTKIQSK]: the MIC is not below 100 µM in [15]; more than 100 µM in assay [24]; more than 100 µM in [25]; not below 100 µM in assay [26]; not below 100 µM in [27]; not below 100 µM in [28]. Also, the MIC in assay [29] is not below 100 µM.
Consider `CC[C@H](C)[C@H](NC(=O)CNC(=O)[C@H](CCCN=C(N)N)NC(=O)[C@H](Cc1ccc(O)cc1)NC(=O)[C@@H](NC(=O)[C@H](CCCN=C(N)N)NC(=O)[C@H](Cc1ccccc1)NC(=O)[C@@H](N)Cc1c[nH]c2ccccc12)C(C)C)C(=O)N[C@@H](Cc1ccc(O)cc1)C(=O)N[C@@H](CCCN=C(N)N)C(=O)N[C@@H](CCCN=C(N)N)C(=O)N[C@@H](CCCN=C(N)N)C(N)=O` [WFRVYRGIYRRR], for which the figures for the MIC (in assay [30]; against Escherichia coli C25) were 72 µM (≈ 124 µg/mL) and not below 72 µM, respectively.

The MIC is the smallest concentration in the dilution series that meets the test's criterion for growth inhibition. High values mean a need for much substance, low ones inhibition by little substance.
